Source: patent US20230257385A1, “SALT AND SOLID FORMS OF TABERNANTHALOG” (priority 2021, published 2023)
Counter-ions that a name gives are not always drawn.

How the values were obtained:
Assay type in all cases: physicochemical
[1] = Stability panel of salts, open vial / double-bagged vial, t=5 d and 10 d; conditions: storage conditions not given
Description: FIG. 797 depicts the overlay of, from top to bottom, XRPD of Experiment 1-Sample A2 (Form A), Experiment 10-Sample A1 (5 days, open vial Pattern #2), Experiment 10-Sample A2 (10 days, open vial, Pattern #2), Experiment 10-Sample B1 (5 days, double-bagged vial, Form A) and Experiment 10-Sample B2 (10 days, double-bagged vial, Pattern #2).

[2] = Equilibrium humidity evaluation 75% RH/40° C., 10 days (Example 8, Experiment 6); conditions: for change in chemical purity (trended HPLC): after 10 days; for powder diffraction pattern versus input (form stability): t=5 days and t=10 days
Method in brief: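 Tabernanthalog salt powders (100 mg) were spread evenly in open vials and held at 40 °C and 75% RH. Sub-samples taken at 5 and 10 days were analysed by ^1H NMR, HPLC, XRPD, DSC, TGA and PLM for phase change, chemical degradation and residual solvent.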

[3] = Qualitative solubility screen of Tabernanthalog sorbate salt (Example 10, Experiment 2)
Method: The qualitative solubility screen was carried out to determine the range of solvents incorporated into future suspension equilibration panels. Products that crystallised were centrifuged and analysed as wet pellet by XRPD, dried under reduced pressure and re-analysed by XRPD, with selected samples further analysed by TGA and ^1H NMR spectroscopy.
If insoluble at 5 vol, the solvent quantity was increased to 10 vol, 15 vol and 20 vol of the respective solvent. The suspensions that occurred upon cooling down were centrifuged and the solvent wet pellets were analysed by XRPD.
The insoluble suspensions were additionally worked up for XRPD analysis. The resultant powder patterns were subsequently cross-referenced against the input supplied material.

[4] = SIF buffer solubility panel (FaSSIF, FeSSIF, FaSSGF)
[5] = 75% RH/40° C., listed as Tabernanthalog sorbate salt (Form A)
[6] = Acetone/Water (5% v/v, 0.5 aw), 5 vol

COc1ccc2c3c([nH]c2c1)CCN(C)CC3 [tabernanthalog sorbate salt]
CP after stability storage ([1]; end value (minimal reduction in CP)): 99.70 % area
CP before stability storage ([1]; starting value): 99.76 % area
CP (chemical purity) after storage ([2]; 75% RH at 40° C., 10 days): 99.70 % area
change in chemical purity (trended HPLC) ([2]; 75% RH/40° C.): did not reduce significantly
change in chemical purity (trended HPLC) [2, 5]: lowest decrease in chemical purity
change in chemical purity (trended HPLC) ([2]; 75% RH/40° C., listed as tabernanthalog sorbate): lowest decrease in chemical purity
water uptake / hydrate formation (TGA, DSC) ([2]; 75% RH/40° C., t=5 d and t=10 d): did not exhibit any water absorption events
powder diffraction pattern versus input (form stability) ([2]; 75% RH/40° C.): matched the diffractogram of the input material
powder diffraction pattern versus input (form stability) [2, 5]: Form A was stable
Tabernanthalog RRT = 1.00 (trended HPLC data, chemical purity) ([2]; Sorbate salt, input before humidity exposure): 99.76
CP (chemical purity) before storage ([2]; input of 6-D): 99.76 % area
Solid on cooling ([3]; 2-Propanol, 5 vol): ✓
Solution at reflux ([3]; 2-Propanol, 5 vol): ✓
Solid on cooling ([3]; 2-Propanol, 10 vol): ✓
Solution at reflux ([3]; 2-Propanol, 10 vol): ✓
Solid on cooling ([3]; 2-Propanol, 15 vol): ✓
Solution at reflux ([3]; 2-Propanol, 15 vol): ✓
Solid on cooling ([3]; 2-Propanol, 20 vol): ✓
Solution at reflux ([3]; 2-Propanol, 20 vol): ✓
Solid on cooling ([3]; Acetone, 10 vol): ✓
Solution at reflux ([3]; Acetone, 10 vol): ✓
Solid on cooling ([3]; Acetone, 15 vol): ✓
Solution at reflux ([3]; Acetone, 15 vol): ✓
Solid on cooling ([3]; Acetone, 20 vol): ✓
Solution at reflux ([3]; Acetone, 20 vol): ✓
Solid on cooling [3, 6]: ✓
Solution at 40° C. [3, 6]: ✓
Solid on cooling ([3]; Chlorobenzene, 5 vol): ✓
Solution at reflux ([3]; Chlorobenzene, 5 vol): ✓
Solid on cooling ([3]; Chlorobenzene, 10 vol): ✓
Solution at reflux ([3]; Chlorobenzene, 10 vol): ✓
Solid on cooling ([3]; Chlorobenzene, 15 vol): ✓
Solution at reflux ([3]; Chlorobenzene, 15 vol): ✓
Solid on cooling ([3]; Chlorobenzene, 20 vol): ✓
Solution at 20° C. ([3]; Chlorobenzene, 20 vol): ×
Solution at reflux ([3]; Chlorobenzene, 20 vol): ✓
Solid on cooling ([3]; DCM, 5 vol): ✓
Solution at reflux ([3]; DCM, 5 vol): ✓
Solid on cooling ([3]; DCM, 10 vol): ✓
Solution at 40° C. ([3]; DCM, 10 vol): ✓
Solution at 40° C. ([3]; DCM, 15 vol): ✓
Solid on cooling ([3]; EtOAc, 5 vol): ✓
Solution at reflux ([3]; EtOAc, 5 vol): ✓
Solid on cooling ([3]; EtOAc, 10 vol): ✓
Solution at reflux ([3]; EtOAc, 10 vol): ✓
Solid on cooling ([3]; EtOAc, 15 vol): ✓
Solution at reflux ([3]; EtOAc, 15 vol): ✓
Solid on cooling ([3]; EtOAc, 20 vol): ✓
Solution at reflux ([3]; EtOAc, 20 vol): ✓
Solid on cooling ([3]; EtOH, 5 vol): ✓
Solution at reflux ([3]; EtOH, 5 vol): ✓
Solid on cooling ([3]; EtOH, 10 vol): ✓
Solution at 40° C. ([3]; EtOH, 10 vol): ✓
Solution at 40° C. ([3]; EtOH, 15 vol): ✓
Solution at 20° C. ([3]; Ethanol/Water (15% v/v, 0.5 aw), 5 vol): ✓
Solid on cooling ([3]; Ethyl formate, 5 vol): ✓
Solution at reflux ([3]; Ethyl formate, 5 vol): ✓
Solid on cooling ([3]; Ethyl formate, 10 vol): ✓
Solution at reflux ([3]; Ethyl formate, 10 vol): ✓
Solid on cooling ([3]; Ethyl formate, 15 vol): ✓
Solution at reflux ([3]; Ethyl formate, 15 vol): ✓
Solid on cooling ([3]; Ethyl formate, 20 vol): ✓
Solution at reflux ([3]; Ethyl formate, 20 vol): ✓
Solution at reflux ([3]; Heptane, 10 vol): Oiled
Solution at 40° C. ([3]; Isopropanol/Water (12%, v/v, 0.5 aw), 5 vol): ✓
Solid on cooling ([3]; Isopropyl acetate, 5 vol): ✓
Solution at reflux ([3]; Isopropyl acetate, 5 vol): ✓
Solid on cooling ([3]; Isopropyl acetate, 10 vol): ✓
Solution at reflux ([3]; Isopropyl acetate, 10 vol): ✓
Solid on cooling ([3]; Isopropyl acetate, 15 vol): ✓
Solution at reflux ([3]; Isopropyl acetate, 15 vol): ✓
Solid on cooling ([3]; Isopropyl acetate, 20 vol): ✓
Solution at reflux ([3]; Isopropyl acetate, 20 vol): ✓
Solid on cooling ([3]; MEK, 5 vol): ✓
Solution at reflux ([3]; MEK, 5 vol): ✓
Solid on cooling ([3]; MEK, 10 vol): ✓
Solution at reflux ([3]; MEK, 10 vol): ✓
Solid on cooling ([3]; MEK, 15 vol): ✓
Solution at reflux ([3]; MEK, 15 vol): ✓
Solid on cooling ([3]; MEK, 20 vol): ✓
Solution at 40° C. ([3]; MEK, 20 vol): ✓
Solid on cooling ([3]; MeCN, 5 vol): ✓
Solution at reflux ([3]; MeCN, 5 vol): ✓
Solid on cooling ([3]; MeCN, 10 vol): ✓
Solution at reflux ([3]; MeCN, 10 vol): ✓
Solid on cooling ([3]; MeCN, 15 vol): ✓
Solution at reflux ([3]; MeCN, 15 vol): ✓
Solid on cooling ([3]; MeCN, 20 vol): ✓
Solution at reflux ([3]; MeCN, 20 vol): ✓
Solution at 20° C. ([3]; MeOH, 5 vol): ✓
Solid on cooling ([3]; MeTHF, 5 vol): ✓
Solution at reflux ([3]; MeTHF, 5 vol): ✓
Solid on cooling ([3]; MeTHF, 10 vol): ✓
Solution at reflux ([3]; MeTHF, 10 vol): ✓
Solid on cooling ([3]; MeTHF, 15 vol): ✓
Solution at reflux ([3]; MeTHF, 15 vol): ✓
Solid on cooling ([3]; MeTHF, 20 vol): ✓
Solution at reflux ([3]; MeTHF, 20 vol): ✓
Solid on cooling ([3]; Methyl acetate, 10 vol): ✓
Solution at reflux ([3]; Methyl acetate, 10 vol): ✓
Solid on cooling ([3]; Methyl acetate, 15 vol): ✓
Solution at reflux ([3]; Methyl acetate, 15 vol): ✓
Solid on cooling ([3]; Methyl acetate, 20 vol): ✓
Solution at reflux ([3]; Methyl acetate, 20 vol): ✓
Solid on cooling ([3]; Nitromethane, 5 vol): ✓
Solution at reflux ([3]; Nitromethane, 5 vol): ✓
Solid on cooling ([3]; Nitromethane, 10 vol): ✓
Solution at reflux ([3]; Nitromethane, 10 vol): ✓
Solid on cooling ([3]; Nitromethane, 15 vol): ✓
Solution at reflux ([3]; Nitromethane, 15 vol): ✓
Solid on cooling ([3]; Nitromethane, 20 vol): ✓
Solution at reflux ([3]; Nitromethane, 20 vol): ✓
Solid on cooling ([3]; THF, 5 vol): ✓
Solution at reflux ([3]; THF, 5 vol): ✓
Solution at reflux ([3]; THF, 10 vol): ✓
Solid on cooling ([3]; Toluene, 5 vol): ✓
Solution at reflux ([3]; Toluene, 5 vol): ✓
Solid on cooling ([3]; Toluene, 10 vol): ✓
Solution at reflux ([3]; Toluene, 10 vol): ✓
Solid on cooling ([3]; Toluene, 15 vol): ✓
Solution at reflux ([3]; Toluene, 15 vol): ✓
Solid on cooling ([3]; Toluene, 20 vol): ✓
Solution at reflux ([3]; Toluene, 20 vol): ✓
Solid on cooling ([3]; Water, 5 vol): ✓
Solution at reflux ([3]; Water, 5 vol): ✓
Solution at reflux ([3]; Water, 10 vol): ✓
solubility in FaSSGF ([4]; FaSSGF, 37° C., up to 24 h (timepoints t=0, 1 h, 3 h, 6 h, 24 h)): remained suspended
disproportionation in the SIF buffers ([4]; SIF buffers): no observed disproportionation
solubility in the SIF buffers ([4]; SIF buffers overall): highly soluble in the SIF buffers (apart from FaSSGF)
